Results as given in patent US20200291018A1, “TAM KINASE INHIBITORS” (SYROS PHARMACEUTICALS, INC., priority 2017, published 2020).

How the values were obtained:
AXL = target: T1, AXL (Homo sapiens, UniProt P30530); test: TR-FRET kinase activity assay, AXL; format: biochemical; details: ATP at Km, 60 minutes
T1 sequence (P30530 26-894): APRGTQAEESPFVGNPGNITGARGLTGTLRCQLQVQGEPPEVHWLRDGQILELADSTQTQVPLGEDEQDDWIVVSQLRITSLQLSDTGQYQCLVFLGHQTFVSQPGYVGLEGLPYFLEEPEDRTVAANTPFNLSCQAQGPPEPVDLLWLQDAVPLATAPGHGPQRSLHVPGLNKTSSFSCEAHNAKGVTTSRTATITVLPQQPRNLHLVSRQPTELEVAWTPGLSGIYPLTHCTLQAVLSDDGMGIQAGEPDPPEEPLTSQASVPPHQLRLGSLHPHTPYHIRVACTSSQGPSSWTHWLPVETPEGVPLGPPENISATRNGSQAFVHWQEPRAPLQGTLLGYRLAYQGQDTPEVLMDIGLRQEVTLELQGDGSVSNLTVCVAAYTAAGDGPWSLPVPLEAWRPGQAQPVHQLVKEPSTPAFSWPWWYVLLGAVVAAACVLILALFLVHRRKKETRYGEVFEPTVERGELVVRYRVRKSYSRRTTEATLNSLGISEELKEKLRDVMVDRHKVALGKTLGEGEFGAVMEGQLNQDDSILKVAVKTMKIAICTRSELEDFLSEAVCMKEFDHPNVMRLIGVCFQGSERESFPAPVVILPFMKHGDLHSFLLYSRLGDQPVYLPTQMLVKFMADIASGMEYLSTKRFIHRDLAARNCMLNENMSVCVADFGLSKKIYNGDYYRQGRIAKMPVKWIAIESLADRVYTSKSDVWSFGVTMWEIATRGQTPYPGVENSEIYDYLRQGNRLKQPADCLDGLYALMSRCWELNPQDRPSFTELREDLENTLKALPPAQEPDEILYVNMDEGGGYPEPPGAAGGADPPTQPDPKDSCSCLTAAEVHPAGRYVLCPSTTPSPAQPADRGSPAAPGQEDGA
Outline: (§1)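 Steps: compound, enzyme and labeled peptide combined at RT (50 mM HEPES pH 7.5, 10 mM MgCl2, 1 mM DTT); ATP added at Km; 60 min reaction; EDTA quench; Eu-antibody development 30 min in darkness; TR-FRET measured and IC50 fitted.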

FLT3 = target: T2, FLT3 (Homo sapiens, UniProt P36888); test: TR-FRET kinase activity assay, FLT3; format: biochemical; details: ATP at Km, 60 minutes
T2 sequence (P36888 27-993): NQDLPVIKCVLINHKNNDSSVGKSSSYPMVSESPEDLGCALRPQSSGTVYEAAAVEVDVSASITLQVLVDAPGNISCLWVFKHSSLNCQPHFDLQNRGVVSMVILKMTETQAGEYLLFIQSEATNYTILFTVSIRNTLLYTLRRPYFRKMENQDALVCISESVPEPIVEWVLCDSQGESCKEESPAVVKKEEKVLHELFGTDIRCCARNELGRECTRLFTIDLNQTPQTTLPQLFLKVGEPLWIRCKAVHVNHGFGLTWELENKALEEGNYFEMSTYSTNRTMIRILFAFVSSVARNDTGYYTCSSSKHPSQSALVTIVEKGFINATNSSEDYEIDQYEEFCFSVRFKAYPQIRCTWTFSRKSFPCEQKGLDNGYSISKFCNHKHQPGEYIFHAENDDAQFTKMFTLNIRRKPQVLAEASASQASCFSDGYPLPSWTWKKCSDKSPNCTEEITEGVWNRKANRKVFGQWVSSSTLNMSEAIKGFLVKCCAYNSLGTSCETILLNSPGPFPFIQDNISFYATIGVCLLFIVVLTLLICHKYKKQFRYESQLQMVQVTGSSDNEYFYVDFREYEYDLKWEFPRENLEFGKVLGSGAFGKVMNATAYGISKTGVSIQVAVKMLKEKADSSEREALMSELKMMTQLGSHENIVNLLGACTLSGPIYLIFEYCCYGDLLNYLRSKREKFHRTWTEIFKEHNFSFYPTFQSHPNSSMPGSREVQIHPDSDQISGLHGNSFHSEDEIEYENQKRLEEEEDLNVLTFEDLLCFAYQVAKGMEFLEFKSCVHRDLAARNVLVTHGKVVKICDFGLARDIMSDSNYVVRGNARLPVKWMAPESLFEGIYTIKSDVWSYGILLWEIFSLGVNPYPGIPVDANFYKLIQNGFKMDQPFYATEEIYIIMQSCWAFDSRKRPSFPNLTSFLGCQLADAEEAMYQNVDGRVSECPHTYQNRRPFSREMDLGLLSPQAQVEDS
Outline: as §1

Row | SMILES | IC50 (AXL) [µM] | IC50 (FLT3) [µM]
1 | CCCC(C)Nc1ncc2c(OC3CCN(CCC(=O)N(C)C)CC3)ncc([C@H]3CC[C@H](O)CC3)c2n1 (stereo partly drawn) [Compound 170] | 0.1 to 1 | 1 to 10
2 | CCCC(C)Nc1ncc2c(OCCN(C)C)ncc([C@H]3CC[C@H](O)CC3)c2n1 (stereo partly drawn) [Compound 191] | 1 to 10 | 1 to 10
3 | CCCC(C)Nc1ncc2c(N3CC[C@H](N(C)C)C3)ncc([C@H]3CC[C@H](O)CC3)c2n1 (stereo partly drawn) [Compound 159] | 1 to 10 | 1 to 10
4 | CCCC(C)Nc1ncc2c(=O)n(C3CCN(CCC(=O)N(C)C)CC3)cc([C@H]3CC[C@H](O)CC3)c2n1 (stereo partly drawn) [Compound 151] | 0.1 to 1 | 1 to 10
5 | CCCC(C)Nc1ncc2c(=O)n(C3CCN(CC(=O)N(C)C)CC3)cc([C@H]3CC[C@@H](O)CC3)c2n1 (stereo partly drawn) [Compound 149] | 0.1 to 1 | 1 to 10
6 | CCCC(C)Nc1ncc2c(N(C)C3CCNCC3)ncc([C@H]3CC[C@H](O)CC3)c2n1 (stereo partly drawn) [Compound 179] | 0.1 to 1 | 1 to 10
7 | CCCC(C)Nc1ncc2c(N3CCC(NC)CC3)ncc([C@H]3CC[C@H](O)CC3)c2n1 (stereo partly drawn) [Compound 155] | 0.1 to 1 | 1 to 10
8 | CCCC(C)Nc1ncc2c(OC[C@H]3CC[C@H](O)CC3)ncc([C@H]3CC[C@H](O)CC3)c2n1 (stereo partly drawn) [Compound 160] | 0.1 to 1 | 1 to 10
9 | CCCC(C)Nc1ncc2c(=O)n(CCN3CCOCC3)cc([C@H]3CC[C@H](O)CC3)c2n1 (stereo partly drawn) [Compound 177] | 1 to 10 | 1 to 10
10 | CCCC(C)Nc1ncc2c(=O)n(C3CCN(CCOC)CC3)cc([C@H]3CC[C@H](O)CC3)c2n1 (stereo partly drawn) [Compound 150] | 0.1 to 1 | 1 to 10
11 | CN1CCC(Nc2ncc3c(OC4CCNCC4)ncc([C@H]4CC[C@H](O)CC4)c3n2)C1=O (stereo partly drawn) [Compound 162] | 1 to 10 | 1 to 10
12 | CCCC(C)Nc1ncc2c(N3CCC[C@@H](N(C)C)C3)ncc([C@H]3CC[C@H](O)CC3)c2n1 (stereo partly drawn) [Compound 188] | 1 to 10 | 1 to 10
13 | CCCC(C)Nc1ncc2c(N3CC(N(C)C)C3)ncc([C@H]3CC[C@H](O)CC3)c2n1 (stereo partly drawn) [Compound 181] | 1 to 10 | 1 to 10

More lines, now with the values ahead:

Row | IC50 (AXL) [µM] | IC50 (FLT3) [µM] | SMILES
14 | ≤ 0.1 | 1 to 10 | CCCCC[C@H](C)Nc1ncc2c(OC3CCNCC3)ncc([C@H]3CC[C@H](O)CC3)c2n1 [Compound 130]
15 | 0.1 to 1 | 0.1 to 1 | CO[C@H]1C[C@@H](Oc2ncc([C@H]3CC[C@H](O)CC3)c3nc(N[C@@H](C)CC(F)(F)F)ncc23)C1 [Compound 434]
16 | 1 to 10 | 1 to 10 | COC[C@H](C)Nc1ncc2c(O[C@H]3C[C@@H](O)C3(C)C)ncc([C@H]3CC[C@H](O)CC3)c2n1 [Compound 431]
17 | 0.1 to 1 | 1 to 10 | CCC[C@H](C)Nc1ncc2c(OC3CCN(C)CC3)ncc([C@H]3CC[C@H](O)CC3)c2n1 [Compound 190]
18 | 0.1 to 1 | 1 to 10 | CCCC(C)Nc1ncc2c(O[C@@H]3C[C@H]4CC[C@@H](C3)O4)ncc([C@H]3CC[C@H](O)CC3)c2n1 (stereo partly drawn) [Compound 174]
19 | 0.1 to 1 | 1 to 10 | CCCC(C)Nc1ncc2c(OC3CCN(CCOC)CC3)ncc([C@H]3CC[C@H](O)CC3)c2n1 (stereo partly drawn) [Compound 173]
20 | 0.1 to 1 | 1 to 10 | CCCC(C)Nc1ncc2c(OC3CCN(S(C)(=O)=O)CC3)ncc([C@H]3CC[C@H](O)CC3)c2n1 (stereo partly drawn) [Compound 143]
21 | 0.1 to 1 | 0.1 to 1 | C[C@@H](CC(F)(F)F)Nc1ncc2c(O[C@H]3C[C@](C)(O)C3)ncc([C@H]3CC[C@H](O)CC3)c2n1 [Compound 430]
22 | 0.1 to 1 | 1 to 10 | CCCC(C)Nc1ncc2c(OC[C@H]3CC[C@@H](O)CC3)ncc([C@H]3CC[C@H](O)CC3)c2n1 (stereo partly drawn) [Compound 157]
23 | 1 to 10 | 0.1 to 1 | CCCC(C)Nc1ncc2c(OCCN3CCOCC3)ncc([C@H]3CC[C@H](O)CC3)c2n1 (stereo partly drawn) [Compound 182]
24 | 0.1 to 1 | 0.1 to 1 | CCCC(C)Nc1ncc2c(O[C@H]3CC[C@H](O)CC3)ncc([C@H]3CC[C@H](O)CC3)c2n1 (stereo partly drawn) [Compound 139]
